The values below come from PubChem BioAssay (NCI).

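Test compounds were applied to cells in 96-well plates for 48 hours at 5 doses. GI50 is the concentration that inhibits growth by half. Definition used: TGI = concentration required for complete inhibition of growth.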

Among the test systems are TK-10 renal; LOX IMVI melanoma; PC-3 prostate; SW-620 colon; OVCAR-3 ovarian; SNB-19 CNS; HCT-116 colon; HOP-92 NSCLC; SNB-75 CNS; CCRF-CEM leukemia.
Holding throughout (assay): inhibition of tumour cell growth, NCI panel, 48 h

For `COc1cc2ccc(C(C)NCC#N)cc2cc1OC` (stereo not given), the TGI in the experiment on TK-10 renal, in the experiment with LOX IMVI melanoma, with PC-3 prostate, in the experiment with SW-620 colon, in the experiment with OVCAR-3 ovarian and in the experiment with SNB-19 CNS was over 100 µM throughout. In addition, the TGI in the experiment on HCT-116 colon, in the experiment with HOP-92 NSCLC and with SNB-75 CNS was over 100 µM throughout.

As to `C[C@]12CC[C@H]3[C@@H](CCC4=C/C(=N/OCCN5CCCCC5)CC[C@@]43C)[C@@H]1CC[C@@H]2O`, the TGI with TK-10 renal amounted to 35 µM; in the experiment with CCRF-CEM leukemia it was 26.9 µM; in the experiment on LOX IMVI melanoma, 57.3 µM; in the experiment on PC-3 prostate, 45.6 µM; in the experiment on SW-620 colon it was 32.7 µM; with OVCAR-3 ovarian, 32 µM. Further, the results for the TGI in the experiment with SNB-19 CNS, with HCT-116 colon and in the experiment on SNB-75 CNS were 18.5 µM, over 100 µM and 22.4 µM, respectively.

For `Cc1cc(C)n(C(C)(C(=O)Cc2ccccc2)n2nc(C)cc2C)n1`, the TGI with TK-10 renal, with LOX IMVI melanoma, with PC-3 prostate, in the experiment with SW-620 colon, in the experiment on OVCAR-3 ovarian and in the experiment on SNB-19 CNS was over 100 µM throughout. Further, the TGI in the experiment on HCT-116 colon and in the experiment with HOP-92 NSCLC was over 100 µM each time.

In the case of `CC(C)(C)[C@H]1NC(=O)CN1C(=O)OCc1ccccc1`, the TGI in the experiment with TK-10 renal, in the experiment on CCRF-CEM leukemia, in the experiment on LOX IMVI melanoma, with PC-3 prostate, with SW-620 colon and in the experiment on SNB-19 CNS was over 100 µM each time. Moreover, the TGI with HCT-116 colon is over 100 µM; in the experiment on HOP-92 NSCLC it was 31.9 µM; in the experiment with SNB-75 CNS, over 100 µM.

For `COc1ccccc1-c1cc(=O)c2cccnc2[nH]1`, the TGI with TK-10 renal, in the experiment with CCRF-CEM leukemia, with LOX IMVI melanoma, with PC-3 prostate, with SW-620 colon and with OVCAR-3 ovarian was over 100 µM throughout. For the same molecule, the values for the TGI with SNB-19 CNS, in the experiment on HCT-116 colon and with HOP-92 NSCLC were over 100 µM, over 100 µM and 60.2 µM, respectively.

Turning to `Clc1ccc(-c2nn3c(COc4ccc(OCc5nnc6sc(-c7ccc(Cl)cc7)nn56)c(Cl)c4)nnc3s2)cc1`, the TGI in the experiment with TK-10 renal is 45.7 µM; in the experiment with LOX IMVI melanoma, 35.6 µM; in the experiment with PC-3 prostate, over 100 µM; in the experiment on SW-620 colon it was 74.1 µM; with OVCAR-3 ovarian, over 100 µM; with SNB-19 CNS it was 31.7 µM. Besides, the TGI in the experiment with HCT-116 colon was over 100 µM; in the experiment on HOP-92 NSCLC it was 37.8 µM; in the experiment with SNB-75 CNS, 29.8 µM.

In the case of `CCn1c(-c2cc3ccccc3cc2OC(C)=O)n[nH]c1=S`, the TGI with TK-10 renal is 75.6 µM; with CCRF-CEM leukemia it was 34.2 µM; in the experiment with LOX IMVI melanoma it was over 100 µM; with PC-3 prostate it was 39.2 µM; in the experiment with SW-620 colon, over 100 µM; in the experiment with OVCAR-3 ovarian, 67.8 µM. Also, the TGI with HCT-116 colon was 41.7 µM; with HOP-92 NSCLC, over 100 µM.

On to `CN(C)CCCNC(=O)N/N=C/c1ccccn1`, for which the TGI with TK-10 renal, in the experiment on CCRF-CEM leukemia, in the experiment with LOX IMVI melanoma, in the experiment on PC-3 prostate, in the experiment on SW-620 colon and with HCT-116 colon was over 10 µM throughout. Also, the TGI in the experiment with HOP-92 NSCLC and with SNB-75 CNS was over 10 µM each time.

With `COC(=O)c1c2c(cc3c1CC1(Cc4cc5c(cc4C1)CCCC5)C3)CCCC2`, the TGI with TK-10 renal was over 100 µM; with CCRF-CEM leukemia, over 100 µM; with LOX IMVI melanoma it was over 100 µM; in the experiment on PC-3 prostate it was over 100 µM; in the experiment with OVCAR-3 ovarian, over 100 µM; with HCT-116 colon it was 28.6 µM. In the experiment with HOP-92 NSCLC, this molecule returned a TGI of over 100 µM.

In the case of `COc1ccc(C=C2C(C)=NN(c3cccc(Cl)c3)C23C(Cl)C(=O)N3c2nc3ccccc3s2)cc1` (stereo not given), the TGI with TK-10 renal is over 100 µM; in the experiment with CCRF-CEM leukemia, 30.5 µM; with LOX IMVI melanoma it was 38.5 µM; in the experiment with PC-3 prostate, 39.3 µM; in the experiment with SW-620 colon it was 20.7 µM; in the experiment with OVCAR-3 ovarian, 42.9 µM. Besides, the TGI with HCT-116 colon stood at 28.8 µM; with HOP-92 NSCLC, 24.6 µM.

As to `CCOC(=O)CSc1nc(-c2ccc(Cl)cc2)c(C#N)c(=O)[nH]1`, the TGI was over 100 µM with TK-10 renal; 89 µM with CCRF-CEM leukemia; over 100 µM in the experiment with PC-3 prostate; over 100 µM in the experiment on SW-620 colon; over 100 µM with OVCAR-3 ovarian; over 100 µM with SNB-19 CNS. Moreover, the TGI in the experiment with HCT-116 colon, in the experiment on HOP-92 NSCLC and in the experiment on SNB-75 CNS was over 100 µM in each case.

On to `CCCCCCCCCCCCCCCC[N+](C)(C)CCl`, for which the TGI with TK-10 renal was 6.41 µM; with PC-3 prostate, 7.96 µM; in the experiment on SW-620 colon, over 100 µM; in the experiment with OVCAR-3 ovarian, 14.6 µM; with SNB-19 CNS it was 3.81 µM; in the experiment with HCT-116 colon, 4.98 µM. The molecule also had a TGI in the experiment with SNB-75 CNS of 5.18 µM.

As to `CC(C)(C)C(=O)C(N)C(=O)C(C)(C)C`, the TGI with TK-10 renal, in the experiment on CCRF-CEM leukemia, with LOX IMVI melanoma, in the experiment with PC-3 prostate, in the experiment on SW-620 colon and with SNB-19 CNS was over 100 µM each time. For the same molecule, the TGI in the experiment with HCT-116 colon, in the experiment with HOP-92 NSCLC and with SNB-75 CNS was over 100 µM throughout.

Turning to `Cc1cc(C)c(C2=NO[C@@H]3[C@H]2C(=O)C=C2N(Cc4ccccc4)CCO[C@@]23O)c(C)c1`, the TGI with CCRF-CEM leukemia, in the experiment on LOX IMVI melanoma, with SW-620 colon, in the experiment on OVCAR-3 ovarian, in the experiment with SNB-19 CNS and in the experiment on HCT-116 colon was over 100 µM each time. The TGI with HOP-92 NSCLC and with SNB-75 CNS was over 100 µM each time.

In the case of `COc1ccc(C2CC(c3cccc(Nc4ccncc4)c3)=NN2c2ccccc2)cc1` (stereo not given), the GI50 was 2.12 µM with TK-10 renal; 3.44 µM with CCRF-CEM leukemia; 1.74 µM with LOX IMVI melanoma; 1.68 µM in the experiment on PC-3 prostate; 1.81 µM in the experiment with SW-620 colon; 1.86 µM in the experiment with OVCAR-3 ovarian. In addition, the GI50 with SNB-19 CNS was 2.2 µM; in the experiment on HCT-116 colon, 1.68 µM; with SNB-75 CNS it was 1.55 µM. The TGI is 4.43 µM in the experiment with TK-10 renal; 11.6 µM in the experiment with CCRF-CEM leukemia; 3.11 µM in the experiment on LOX IMVI melanoma; 3.38 µM with PC-3 prostate; 3.43 µM in the experiment on SW-620 colon; 3.52 µM with OVCAR-3 ovarian. Further, the TGI with SNB-19 CNS turned out to be 5.79 µM; in the experiment with HCT-116 colon, 3.29 µM; in the experiment on SNB-75 CNS, 5.23 µM.
